According to article PMC9386018, “A lymphatic-absorbed multi-targeted kinase inhibitor for myelofibrosis therapy” (Nature Communications, 2022):
Several values for one entry are separate records, joined by “and”; a condition that tells them apart may be missing. Equal values may be shown once.

Legend:
[1] = system: MPL^W515L mouse model of myelofibrosis; assay: MPL^W515L MF mouse model: histology of spleen, liver and bone marrow; format: in vivo; details: MPL^W515L mice, oral 400 mg kg^−1 daily, 28 d
Description: Generation of the MPL^W515L mutant MF mouse model was similar to previously described methods. Briefly, female donor BALB/c mice were treated with 5-fluorouracil at 150 mg kg^−1 intraperitoneal for 5 d before harvesting bone marrow. Hematopoietic stem and progenitor cells were enriched with CD117 magnetic beads (Miltenyi Biotec), transduced with retrovirus containing MSCV-hMPL W515L-IRES-GFP, then 50,000 transduced HSPCs along with 300,000 total non-stem cells were injected intravenously into lethally irradiated female BALB/c recipients. Development of MF was evaluated by spleen volumes using MRI beginning ~14 d following bone marrow transplantation (BMT) as outlined below, continuing weekly until end of the study. Mice were separated into equal groups based on spleen size ~14–21 d post-BMT, then treated with vehicle (Maisine CC) or LP-182 at 400 mg kg^−1 daily by oral gavage for 14–28 d or until mice were euthanized using guidelines for end stage illness and humane endpoints. Untreated healthy control animals were used for experimental comparisons. […] Soluble protein extracts were isolated by centrifugation at 15,000 x g for 15 min at 4 °C, quantified using Micro BCA protein assay (Thermo Scientific), then mixed with reducing 6X SDS-PAGE loading dye, heated for 8 min at 95 °C, and stored at −20 °C until immuno-blot analysis. […]

[2] = system: MPL^W515L mouse model of myelofibrosis; assay: MPL^W515L MF mouse model Study 2: spleen volume by MRI; format: in vivo; details: for Spleen volume/body weight ratio: Study 2, individual animals, Supplementary Figure 11a
Description: Generation of the MPL^W515L mutant MF mouse model was similar to previously described methods. Briefly, female donor BALB/c mice were treated with 5-fluorouracil at 150 mg kg^−1 intraperitoneal for 5 d before harvesting bone marrow. Hematopoietic stem and progenitor cells were enriched with CD117 magnetic beads (Miltenyi Biotec), transduced with retrovirus containing MSCV-hMPL W515L-IRES-GFP, then 50,000 transduced HSPCs along with 300,000 total non-stem cells were injected intravenously into lethally irradiated female BALB/c recipients. Development of MF was evaluated by spleen volumes using MRI beginning ~14 d following bone marrow transplantation (BMT) as outlined below, continuing weekly until end of the study. Mice were separated into equal groups based on spleen size ~14–21 d post-BMT, then treated with vehicle (Maisine CC) or LP-182 at 400 mg kg^−1 daily by oral gavage for 14–28 d or until mice were euthanized using guidelines for end stage illness and humane endpoints. Untreated healthy control animals were used for experimental comparisons. Tissues were harvested and processed for flow cytometry (as described above), LCMS/MS, immuno-blotting, and histological analysis (as described in Supplementary Methods) at the defined study endpoint(s), approximately 1–2 h post-treatment with vehicle or LP-182. Briefly, blood samples were collected, transferred into K2-EDTA tubes (BD Microtainer), inverted gently to mix, then centrifuged at 2000 x g for 15 min. […] Dissection and bone marrow isolation from mouse femur and tibia was performed similar to previously described methods. Briefly, the hind limbs from mice were dissected, muscle and connective tissue removed, and bones were frozen at −80 °C. Femur and tibia were thawed separately, placed knee-end down in 18 gauge needle-pierced 0.5 mL microcentrifuge tubes nested inside 1.5 or 2 mL microcentrifuge tubes containing 1.4 mm ceramic beads (Fisher Scientific), then bone marrow was isolated by centrifugation at 10,000 x g for 1 min and processed for analysis by LCMS/MS (above; femur) or immuno-blotting (tibia). […] Soluble protein extracts were isolated by centrifugation at 15,000 x g for 15 min at 4 °C, quantified using Micro BCA protein assay (Thermo Scientific), then mixed with reducing 6X SDS-PAGE loading dye, heated for 8 min at 95 °C, and stored at −20 °C until immuno-blot analysis. Whole cell lysates were resolved by 10% SDS-PAGE, transferred to PVDF (Immobilon-P; MilliporeSigma), then membranes were blocked with 5% BSA (Equitech-Bio) in TBS containing 0.1% Tween-20 (TBST) for 1 h at room temperature with gentle orbital shaking. […]

[3] = Pathological and histological toxicity screening in healthy mice; format: in vivo, mouse; design: Hematology Analysis WBC: unit not given here; details: for Body weight: Supplementary Figure 8a
Description: Female CD-1 mice were dosed orally with vehicle (Maisine CC; n = 5) or LP-182 at 400 mg kg^−1 (n = 4) daily for 10 d, followed by an 8 d rest period, then underwent necropsy for hematological, histological, and pathological evaluation by the University of Michigan Unit for Laboratory Animal Medicine In Vivo Animal Core. Untreated animals (n = 3) were also monitored during the study for non-compound related adverse findings (ie. gavage stress impacting weight gain, vehicle-related toxicity), however no findings were observed, thus main comparisons were made between vehicle and compound treated mice. […] Briefly, mice were euthanized by CO2 inhalation, then blood was collected by cardiac puncture and transferred into EDTA anticoagulant-containing tubes, followed by gross necropsy, then tissue harvest and fixation in 10% neutral buffered formalin at a 10:1 (v/v) ratio of fixative to tissue. Differential blood counts were generated from whole blood using a Hemavet 950 automated hematology analyzer (Drew Scientific), and tissues were processed for paraffin embedding using routine histological methods, then sectioned at 4 µm by rotary microtome and mounted on glass slides for hematoxylin and eosin (H&E) staining and evaluation by light microscopy at magnifications ranging from 10–40x. Data was generated from n ≥ 3 individual animals per grouping. Two animals in the vehicle treated group were excluded from blood count analysis due to insufficient sample collection and sample clotting, respectively.

[4] = healthy mice, oral 400 mg kg^−1 for 10 d, 8 d rest
[5] = individual animals, Supplementary Figure 8c
[6] = individual animals, Supplementary Figure 8c, in 10^3/µL (unit assumed)
[7] = individual animals, Supplementary Figure 8c, in % (unit assumed)
[8] = individual animals, Supplementary Figure 8c, in fL (unit assumed)
[9] = individual animals, Supplementary Figure 8c, in g/dL (unit assumed)

Q: For `O=C(NOCCOCCOCCOCCC(=O)N1CCN(c2cnc3ccc(-c4cnc(Cl)c(NS(=O)(=O)c5ccc(F)cc5)c4)cc3n2)CC1)c1ccc(F)c(F)c1Nc1ccc(I)cc1F` [LP-182, N-(2-(2-(2-(3-(4-(7-(6-chloro-5-((4-fluorophenyl)sulfonamido)pyridin-3-yl)quinoxalin-2-yl)piperazin-1-yl)-3-oxopropoxy)ethoxy)ethoxy)ethoxy)-3,4-difluoro-2-((2-fluoro-4-iodophenyl)amino)benzamide], which “extramedullary hematopoiesis, number of MKs and MPL^W515L-positive MKs” value [1] is on record?
A: reduced

Q: And the “reticulin fibrosis in bone marrow” value [1]?
A: diminution of reticulin fibrosis

Q: What about the “attenuation of spleen volume increase compared to vehicle” value ([2]; Study 2, MPL^W515L mice, oral 400 mg kg^−1 daily, after 14 d) of the same molecule?
A: ~ 35%

Q: And the “Spleen volume/body weight ratio” value ([2]; 15 Days Post-BMT)?
A: 9.2805 mm3/g and 6.788 mm3/g and 8.526 mm3/g and 6.999 mm3/g and 8.219 mm3/g and 8.1905 mm3/g and 7.226 mm3/g and 10.8805 mm3/g

Q: And the “Spleen volume/body weight ratio” value ([2]; 22 Days Post-BMT)?
A: 22.8 mm3/g and 16.1111 mm3/g and 16.0806 mm3/g and 22.1506 mm3/g and 12.2778 mm3/g and 11.0626 mm3/g and 6.573 mm3/g and 8.03 mm3/g

Q: What about the “Spleen volume/body weight ratio” value ([2]; 29 Days Post-BMT) of the same molecule?
A: 30.4359 mm3/g and 16.7368 mm3/g and 15.8947 mm3/g and 27.7838 mm3/g and 8.806 mm3/g and 15.337 mm3/g and 5.115 mm3/g and 6.324 mm3/g

Q: And the “Relative organ/body weight, Brain” value ([3]; Brain, individual animals, Supplementary Figure 8b)?
A: 1.539% and 1.685% and 1.7935% and 1.6704%

Q: What about the “Relative organ/body weight, Left kidney” value ([3]; Left kidney, individual animals, Supplementary Figure 8b) of the same molecule?
A: 0.6549% and 0.6559% and 0.6824% and 0.6502%

Q: What about the “Relative organ/body weight, Liver” value ([3]; Liver, individual animals, Supplementary Figure 8b) of the same molecule?
A: 5.775% and 6.631% and 5.788% and 5.583%

Q: And the “Relative organ/body weight, Right kidney” value ([3]; Right kidney, individual animals, Supplementary Figure 8b)?
A: 0.662% and 0.6523% and 0.6788% and 0.6203%

Q: And the “Relative organ/body weight, Spleen” value ([3]; Spleen, individual animals, Supplementary Figure 8b)?
A: 0.5915% and 0.4229% and 0.6217% and 0.4223%

Q: And the “Relative organ/body weight, Thymus” value ([3]; Thymus, individual animals, Supplementary Figure 8b)?
A: 0.2641% and 0.1505% and 0.283% and 0.2317%

Q: What about the Body weight ([3]; Time 1 d, individual animals) of the same molecule?
A: 24 g and 26 g and 25 g (2×)

Q: What about the Body weight ([3]; Time 5 d, individual animals) of the same molecule?
A: 26 g (3×) and 27 g

Q: And the Body weight ([3]; Time 10 d, individual animals)?
A: 26 g (3×) and 27 g

Q: What about the Body weight ([3]; Time 15 d, individual animals) of the same molecule?
A: 27 g (3×) and 30 g

Q: And the Body weight ([3]; Time 18 d, individual animals)?
A: 28.4 g and 27.9 g and 27.99 g and 26.76 g

Q: And the “adverse effects, body weight, complete blood counts” value [3, 4]?
A: no adverse effects, change in body weight, or change in complete blood counts

Q: What about the necropsy histopathology [3, 4] of the same molecule?
A: no histopathological abnormalities

Q: What about the tolerability [3, 4] of the same molecule?
A: well tolerated with no observed toxicity

Q: And the “Hematology Analysis BA” value [3, 5]?
A: 0.03 and 0.02 and 0.04 and 0.06

Q: And the “Hematology Analysis EO” value [3, 5]?
A: 0.24 and 0.11 and 0.2 and 0.16

Q: And the “Hematology Analysis WBC” value [3, 5]?
A: 7.06 and 10.06 and 5.16 (2×)

Q: What about the “Hematology Analysis LY” value [3, 6] of the same molecule?
A: 4.99 and 6.24 and 3.4 and 3.44

Q: What about the “Hematology Analysis MO” value [3, 6] of the same molecule?
A: 0.24 and 0.93 and 0.14 and 0.21

Q: What about the “Hematology Analysis NE” value [3, 6] of the same molecule?
A: 1.57 and 2.76 and 1.38 and 1.3

Q: What about the “Hematology Analysis PLT” value [3, 6] of the same molecule?
A: 721 and 1152 and 272 and 338

Q: What about the “Hematology Analysis RBC” value ([3]; individual animals, Supplementary Figure 8c, in 10^6/µL (unit assumed)) of the same molecule?
A: 8.48 and 9.05 and 9.08 and 9.55

Q: What about the “Hematology Analysis HCT” value [3, 7] of the same molecule?
A: 49.5 and 47.2 and 51.7 and 49.4

Q: What about the “Hematology Analysis RDW” value [3, 7] of the same molecule?
A: 16.8 and 16.2 and 17.4 and 15.3

Q: What about the “Hematology Analysis MCV” value [3, 8] of the same molecule?
A: 58.4 and 52.2 and 56.9 and 51.7

Q: And the “Hematology Analysis MPV” value [3, 8]?
A: 5.2 and 4.6 and 5.8 and 5.6

Q: What about the “Hematology Analysis HB” value [3, 9] of the same molecule?
A: 13.7 and 13.8 and 15 and 14.2

Q: And the “Hematology Analysis MCHC” value [3, 9]?
A: 27.7 and 29.2 and 29 and 28.7

Q: What about the “Hematology Analysis MCH” value ([3]; individual animals, Supplementary Figure 8c, in pg (unit assumed)) of the same molecule?
A: 16.2 and 15.2 and 16.5 and 14.9
